In PubChem BioAssay AID179 (DTP/NCI, 2004):
Calls of active or inactive are those of the source.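 Rule for the calls: active = compounds giving half or more protection of infected cells from virus-caused growth loss, again on retest; inactive = the rest.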 Where a SMILES comes first, the peptide text is derived from it. The star is where a group is joined. Cbz = O=C(OCc1ccccc1)*; OBn = c1ccc(CO*)cc1

System: CEM cells HIV-1 protection, formazan growth assay
Assay: NCI AIDS Antiviral Assay
Conditions: for IC50: measured here: growth of uninfected CEM cells
Method in brief: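 Human CEM cells, uninfected and HIV-1-infected, exposed to five drug concentrations; growth measured by soluble formazan assay and scored as percent protection from infection, with protecting compounds retested.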

| Structure (SMILES) | EC50 | IC50 | outcome |
| --- | --- | --- | --- |
| COC(=O)C(Cc1ccc(O)cc1)NC(=O)C(CC(=O)OCc1ccccc1)NC(=O)OCc1ccccc1 (centres undefined) (Cbz-Asp(OBn)-Tyr-OMe; configuration not given here) | > 200 µM | 30.9 µM |  |
| O=[N+]([O-])c1cnc(/C=[N+](\[O-])CCO)n1CCO |  |  | inactive |
| CCOC(=O)c1nc2cc(C(F)(F)F)ccc2nc1Nc1ccc(OC)cc1 | > 126 µM | > 126 µM |  |
| COc1ccc(NS(=O)c2ccccc2OC)cc1 (centres undefined) | > 200 µM | 15.1 µM |  |
| CCOC(=O)C12C(C(=O)O)=C(N)CN1CCc1c2[nH]c2ccccc12 (centres undefined) | > 58.9 µM | > 58.9 µM |  |
| N/C(=N\C(=S)N1CCCCC1)N1CCCCC1 |  |  | inactive |
| Cc1c(C#N)c(N)[nH]c(=S)c1C#N | > 200 µM | > 200 µM |  |
| c1ccc(-c2nnc(-c3ccccn3)c3c2C[C@@H]2C[C@@H]4Cc5c(-c6ccccn6)nnc(-c6ccccn6)c5[C@@H]4[C@H]32)nc1 | > 200 µM | > 200 µM |  |
| COc1c(OC)c(OC)c2c(=O)cc(-c3ccc(OC(C)=O)cc3)oc2c1OC | > 200 µM | 19.5 µM |  |
| COc1cc(NCCN)c2ncsc2c1 | > 200 µM | 85.1 µM |  |
| Fc1ccc2nncc(SCc3ccccc3Cl)c2c1 | > 87.1 µM | 35.5 µM |  |
| C[C@]12CC[C@@H]3c4ccc(OS(N)(=O)=O)cc4CC[C@H]3[C@@H]1CCC2=O |  |  | inactive |
| N#Cc1c(C#N)c(-c2ccco2)n(-c2ccccc2)c1N | > 200 µM | > 200 µM |  |
| C/C(=N/Nc1ccc([N+](=O)[O-])cc1[N+](=O)[O-])C(CC(C(=O)Nc1ccccc1C)/C(C)=N\Nc1ccc([N+](=O)[O-])cc1[N+](=O)[O-])C(=O)Nc1ccccc1C (centres undefined) | > 9.55 µM | > 9.55 µM |  |
| CC(C)CC1=[N+]=C(NC#N)N=C(CCC(=O)Nc2ccccc2[N+](=O)[O-])C1 | > 676 µM | > 676 µM |  |
| NC(=O)c1ccc([As](=O)(O)O)cc1N | > 200 µM | > 200 µM |  |
| C=C1CN(S(=O)(=O)c2ccc(C)cc2)CCCN(C(C)C)CCCN(S(=O)(=O)c2ccc(C)cc2)C1 | > 200 µM | 6.31 µM |  |
| COC(=O)C(=O)C(C(=O)C(=O)Nc1ccc(Cl)cc1Cl)c1nc2ccc(Cl)cc2[nH]c1=O (centres undefined) | > 38 µM | > 38 µM |  |
| Cn1c2ccccc2c2nnc(N/N=C/c3cccnc3)nc21 | > 200 µM | > 200 µM |  |
| Nc1nc(Cl)cc(NCC2(O)CC(CO)C2)n1 (centres undefined) | > 200 µM | > 200 µM |  |
| COc1ccc2nc3cccc([N+](=O)[O-])c3c(NCCC(=O)O)c2c1 | > 200 µM | 4.57 µM |  |

| Structure (SMILES) | EC50 | IC50 | outcome |
| --- | --- | --- | --- |
| COC(=O)/C=C(C)/C=C/c1cc(C(C)=O)c(C)o1 | > 145 µM | 102 µM |  |
| CC(=O)NNc1nc(C)c(C(=O)NNC(=O)C(=O)Nc2ccc([N+](=O)[O-])cc2C#N)s1 | > 407 µM | 331 µM |  |
| CCOC(=O)N[C@@H]1C(CC(=O)OC)O[C@H]2OC(C)(C)O[C@H]21 (some centres undefined) | > 832 µM | > 832 µM |  |
| [Cl][Pd][Cl].[NH-]CCN1CC1 | > 200 µM | 12.3 µM |  |
| NC(CCC(=O)O)(C(=O)O)c1ccccc1 (centres undefined) | > 200 µM | > 200 µM |  |
| CCCCCCCCCCCCCCCC(=O)Nc1nc(=O)n(C2CCC(COP(=O)(O)OCC3OC(n4cc(C)c(=O)[nH]c4=O)CC3N=[N+]=[N-])O2)cc1C (centres undefined) | 0.363 µM | 115 µM |  |
| CC1(C)OC2OC(CO)C(N)C2O1 (centres undefined) |  |  | inactive |
| CC1=C(C(=O)N[C@@H](CC(C)C)C(=O)O)N2C(=O)[C@@H](NC(=O)C(N)c3ccccc3)[C@H]2SC1 (some centres undefined) | 117 µM | > 200 µM |  |
| O=c1c2ccccc2n2c(-c3ccc(O)cc3)nnc2n1-c1ccccc1 | > 200 µM | > 100 µM |  |
| Cc1ccc(-c2n[nH]c(=O)n2N2C(=O)C=CC2=O)cc1 | 49 µM | 501 µM |  |
| COc1nc2ncc([C@@H](O)[C@H](O)CO)nc2c(=O)n1C | > 200 µM | > 200 µM |  |
| O=S(Cl)C(Cl)=C(Cl)Cl (centres undefined) | > 200 µM | 40.7 µM |  |
| COc1ccc(C=O)cc1Oc1ccc(C[C@H]2c3c(cc(OC)c4c3Oc3cc5c(cc3O4)CCN(C)C5=O)CCN2C)cc1 | > 200 µM | 9.77 µM |  |
| Cc1cc(O)cc(C)c1Cl | 162 µM | > 200 µM |  |
| O=S(=O)(O)CCS | > 200 µM | > 200 µM |  |
| CCSc1nnc2c(-c3ccccc3)n[nH]c2n1 |  |  | inactive |
| N#CN=C(N)N |  |  | inactive |
| CC1=C(/C=C/C(C)=C/C=C/C(C)=C/C=O)C(C)(C)CCC1 |  |  | inactive |
| C[C@]12CCCC(=O)C1C[C@H](C(=O)O)CC2 (some centres undefined) |  |  | inactive |
| NC(=O)c1cccc(N=O)c1 | > 200 µM | 12.9 µM |  |
| O=c1[nH]n(CCc2ccncc2)c(=O)c2ccccc12 | > 200 µM | > 200 µM |  |

| Structure (SMILES) | EC50 | IC50 | outcome |
| --- | --- | --- | --- |
| COC(=O)c1ccc(CSc2ccccc2C(=O)O)cc1 | > 603 µM | 427 µM |  |
| Cc1ccc2c(=O)c3cccc(CC(=O)O)c3[nH]c2c1C | > 200 µM | 47.9 µM |  |
| O=C(O)c1ccc(C(=O)O)c(C(=O)c2cc(C(=O)O)ccc2C(=O)O)c1 | > 162 µM | 61.7 µM |  |
| C=C1C(=O)O[C@@H]2C[C@@H](C)[C@@H]3C=CC(=O)[C@@]3(C)[C@@H](OC(=O)CCCC(=O)O[C@H]3[C@@H]4C(=C)C(=O)O[C@@H]4C[C@@H](C)[C@@H]4C=CC(=O)[C@]43C)[C@H]12 | > 5.75 µM | 0.407 µM |  |
| O=C(O)C(O)(O)C(O)(O)C(=O)O | > 200 µM | > 200 µM |  |
| COc1ccc(C2C(Cl)C(=O)N2NC(=O)c2ccc(N)cc2)cc1OC (centres undefined) | > 200 µM | 8.51 µM |  |
| O=NNc1ccc(S(=O)(=O)c2ccc3ccccc3c2)cn1 | > 200 µM | 112 µM |  |
| CC[C@]12C=CCN3CCC4(c5cc([C@]6(C(=O)OC)C[C@H]7CN(CCc8c6[nH]c6ccccc86)CC6CCCCC67)c(OC)cc5N(C)C4[C@@](O)(C(=O)OC)C1OC(C)=O)[C@@H]32 (some centres undefined) | > 89.1 µM | 1.7 µM |  |
| CC1=Nc2ccccc2NC(=O)C1 | > 200 µM | > 200 µM |  |
| O=C1CCSc2nc(-c3ccc4c(c3)OCO4)nn21 | > 200 µM | > 200 µM |  |
| O=C(O)c1cc(-n2c(-c3ccccc3)cc3c2CCc2ccccc2-3)ccc1O |  |  | inactive |
| COC(=O)C1=C2CCC(=O)[C@@]2(C)C(OC(C)=O)C=CC1 (some centres undefined) |  |  | inactive |
| O=C(O)CCC(NC(=O)c1ccc(Nc2nc3ccccc3nc2C(=O)O)cc1)C(=O)O (centres undefined) | > 200 µM | > 200 µM |  |
| Cc1cc(C)c(-n2c(-c3ccccc3)cs/c2=N\N=C2C=C(C(C)(C)C)C(=O)C(C(C)(C)C)=C2)c(C)c1 | > 14.1 µM | > 14.1 µM |  |
| CCOC(=O)c1ccc(CSc2ccc([N+](=O)[O-])cc2)cc1 | > 6.31 µM | > 6.31 µM |  |
| COC(=O)[C@@](NC(=O)OCc1ccccc1)([C@H](C)O)C(F)(F)F | > 200 µM | 110 µM |  |
| O=C1C=C(c2ccccc2)OC1(Cl)c1ccccc1 (centres undefined) | > 200 µM | 38 µM |  |
| O=P(N1CC1)(N1CC1)N1CCN(P(=O)(N2CC2)N2CC2)CC1 | > 200 µM | 2.24 µM |  |
| CC(=O)Nc1ccc(/C=C2\SC(=S)N(/C=C3/C(=O)N(c4ccccc4)N=C3C)C2=O)cc1 | > 200 µM | 72.4 µM |  |
| CC1=CC(O)CC(C)(C)C1/C=C/C(C)=C/C=C/C(C)=C/C=C/C=C(C)/C=C/C=C(C)/C=C/C1=C(C)CC(O)CC1(C)C (centres undefined) | > 200 µM | 33.9 µM |  |
